# Assay results reported in patent publication US6136821A, “Naphthyridine derivatives” (Novartis AG, priority 1996, dated 2000).
# Assays:
# human eosinophils = assay: Inhibition of eosinophil activation by formyl-MetLeuPhe (fMLP); oxidative burst (lucigenin chemiluminescence); assay type: cell-based; conditions: fMLP 1 μM, lucigenin 25 μM, purified human eosinophils
# Method: Anti-inflammatory activity: Inhibition of eosinophil activation by formyl-MetLeuPhe (fMLP)
# Purified human eosinophils (10^4 /well in 0.2 ml HBSS) are stimulated with fMLP (1 μM) in the presence of lucigenin (25 μM). Inhibition of the oxidative burst (measured as changes in chemiluminescence) is determined from dose response curves using the logistic equation.
# Water solubility = assay type: physicochemical; conditions: N-methyl-D-glucamine salt
SMILES,IC50 (human eosinophils) [nM],water solubility (Water solubility)
"Nc1cc2cccnc2c(-c2cccc3nonc23)n1 [Example 2, 6-amino-8-(4-benzo[c]furazanyl)-1,7-naphthyridine]",6,
"CNC[C@H](O)[C@@H](O)[C@H](O)[C@H](O)CO.O=C(O)c1ccc(-c2cc3cccnc3c(-c3cccc4nonc34)n2)cc1 [Example 34, 6-(4-carboxyphenyl)-8-(4-benzo[c]furazanyl)-1,7-napthyridine: salt with N-methyl-D-glucamine]",,water soluble
